According to article PMC11284788, “NN1213 – A Potent, Long-Acting, and Selective Analog of Human Amylin” (Journal of Medicinal Chemistry, 2024):
pEC50, pIC50: −log10 of the molar value. Like-named read-outs stand apart in the source and are kept apart here. Numbered stars: 1 amine (or outer) side, 2 acyl side, 3 side chain; on linkers, the order of the positions; unused ones are H or OH. Bridge positions count the residues as written; N and C are the ends. Side chains are listed from the residue outwards. Peptide text beside a SMILES is read from it. * marks the point of attachment. C20 diacid = O=C(O)CCCCCCCCCCCCCCCCCCC(=O)*; γGlu = O=C(O)[C@H](CCC(=O)[*:2])N[*:1]

Tests used:
[1] = ThT assay: fibril formation propensity and peptide recovery; assay type: physicochemical; details: for ThT, pH 4.0 lag-time: 10 mM glycylglycine pH 4.0, 1 μM ThT; for recovery: residual dissolved peptide after 45 h of shaking, centrifugation and 0.22 μm filtration, HPLC, relative to amount before stress
Outline: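 Peptides at 250 μM in 10 mM glycylglycine (pH 4.0) or HEPES (pH 7.5) with 1 μM ThT, shaken at 37 °C, 960 rpm, for 45 h; ThT fluorescence (ex 444/em 485 nm) read every 20 min. Lag time is the lowest of four replicates (>45 h if none); recovery is soluble peptide by HPLC after centrifugation/filtration, relative to pre-stress.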

rats = test: Acute food intake in rats; assay type: in vivo, rat
hCTR [2] = biological target: T1, hCTR (Homo sapiens, UniProt P30988); test: cAMP-responsive element luciferase reporter assay, human CTR; assay type: cell-based; details: luciferase (human receptor assay); for EC50: Tables S12 and S14, read-out: hCTR pEC50 (converted); for pEC50: BHK cells stably expressing hCTR and CRE-luciferase, 3 h, 37 °C, 10% FBS, read-out: hCTR EC50
T1 sequence (P30988 25-474): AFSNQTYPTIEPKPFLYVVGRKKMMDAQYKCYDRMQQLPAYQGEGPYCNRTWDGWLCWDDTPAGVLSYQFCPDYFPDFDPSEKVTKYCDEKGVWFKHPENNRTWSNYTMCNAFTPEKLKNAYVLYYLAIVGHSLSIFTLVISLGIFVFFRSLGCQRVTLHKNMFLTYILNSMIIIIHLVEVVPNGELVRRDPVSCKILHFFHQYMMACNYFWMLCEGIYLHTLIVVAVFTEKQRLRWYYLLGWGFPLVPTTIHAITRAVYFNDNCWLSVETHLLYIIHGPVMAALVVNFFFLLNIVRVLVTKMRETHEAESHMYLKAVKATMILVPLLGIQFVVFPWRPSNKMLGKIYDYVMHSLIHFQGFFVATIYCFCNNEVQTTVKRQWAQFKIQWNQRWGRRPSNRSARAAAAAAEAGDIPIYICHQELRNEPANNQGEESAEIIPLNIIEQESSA

hCTR [3] = biological target: T1, hCTR; test: scintillation proximity binding assay, hCTR membranes; parameters: expressed in transfected cells; host or cells: BHK tk-ts 13, transient (FuGENE 6); membranes for the SPA, whole cells for the species-specific assays; details: for IC50: SPA binding assay, Tables S13 and S15, read-out: hCTR pIC50 (converted); for pIC50: SPA, BHK cell membranes, 125I-Calcitonin 75 pM, 120 min 25 °C, read-out: hCTR IC50
Experimental: The apparent binding affinities were determined using a scintillation proximity assay with beads from PerkinElmer and cell membranes containing the AMY3R or CTRs. […] Membranes were harvested and membranes were prepared and kept at −80 °C until use. The assay was performed in a 384-well Optiplate (PerkinElmer). Membranes were mixed with scintillation proximity assay beads in a 1:1 ratio. […] Samples were analyzed on a TopCounter (Packard). The IC50 values were calculated using GraphPad Prism. See Supporting Information S7: SAR Screening Assay Methods (Binding Assays (Human and Rat)) for more information.
Binding Assays (Human and Rat). Brief descriptions of the methods used to determine binding affinities for SAR analysis are described below. Curves and IC50 values were plotted and calculated in GraphPad Prism using nonlinear regression (one site binding competition analysis), with pIC50 values […]
values were used to calculate the binding affinity ratios in order to express the selectivity of compounds for the AMY3R versus the CTR.
CTR Binding Assay. The binding assay was performed using scintillation proximity assay (SPA) beads (RPNQ0001) from PerkinElmer and cell membranes containing either the hCTR or rCTR. BHK […]
Membranes were prepared in the following way: the cells were rinsed with PBS and incubated with Versene for approximately 5 min before harvesting. The cells were flushed with PBS and the cell-suspension was centrifuged for 5 min at 1000 rpm. Cells were homogenized (Ultra Turrax) in a buffer […]
containing 20 mM Na-HEPES and 0.1 mM EDTA (pH 7.4, buffer 2). The resulting pellet was re-suspended in buffer 2 and protein concentration was measured (BCA protein assay, Pierce). The homogenate was kept cold during the whole procedure. The membranes were stored at –80 °C until […]
The binding assay was performed in a 384-well Optiplate (PerkinElmer) in a total volume of 40 μL.
Membranes were mixed with SPA beads in a 1:1 ratio. […]
mg/well. Test compounds were dissolved in DMSO and further diluted in assay buffer (50 mM HEPES, pH 7.4, 1 mM CaCl2, 5 mM MgCl2, 0.1% ovalbumin, and 0.02% Tween-20).
Calcitonin (NEX422 PerkinElmer) was dissolved in assay buffer and added to the Optiplate at a final […]
prior to centrifugation (1500 rpm, 10 min). Samples were analyzed on TopCounter (Packard).

[4] = 250 μM peptide, 37 °C, 960 rpm, 45 h, lowest of four replicas, average of experiments

SMILES	ThT, pH 4.0 lag-time ([1]; 250 μM peptide, 37 °C, 960 rpm, 45 h, lowest of four replicas, average of experiments, listed as 21) [h]	recovery ([1]; pH 4.0) [%]	food intake reduction, following 24 h (rats; single sc dose 3 nmol/kg, 24–48 h, compared to controls) [%]	food intake reduction, first 24 h (rats; single sc dose 3 nmol/kg, compared to controls) [%]	food intake reduction, first 24 h (rats; single sc dose 100 nmol/kg) [%]	EC50 (hCTR [2]) [nM]	pEC50 (hCTR [2])	ThT, pH 4.0 lag-time [1, 4] [h]	IC50 (hCTR [3]) [nM]	pIC50 (hCTR [3])	ThT, pH 7.5 lag-time ([1]; 250 μM peptide, 10 mM HEPES pH 7.5, 1 μM ThT, 37 °C, 960 rpm, 45 h, lowest of four replicas, average of experiments) [h]	recovery ([1]; pH 7.5) [%]
CC[C@H](C)[C@H](NC(=O)[C@H](C)NC(=O)CNC(=O)[C@H](Cc1ccccc1)NC(=O)[C@H](CC(N)=O)NC(=O)[C@@H]1CCCN1C(=O)[C@H](CO)NC(=O)[C@H](CO)NC(=O)[C@H](Cc1c[nH]cn1)NC(=O)[C@H](CCCNC(=N)N)NC(=O)[C@H](CC(C)C)NC(=O)[C@H](Cc1ccccc1)NC(=O)[C@H](CC(=O)O)NC(=O)[C@H](C)NC(=O)[C@H](CC(C)C)NC(=O)[C@H](CCCNC(=N)N)NC(=O)[C@H](CCC(N)=O)NC(=O)[C@@H](NC(=O)[C@H](C)NC(=O)[C@@H]1CSSC[C@H](NC(=O)[C@@H](N)CCCCNC(=O)CC[C@H](NC(=O)CC[C@H](NC(=O)CCCCCCCCCCCCCCCCCCC(=O)O)C(=O)O)C(=O)O)C(=O)N[C@@H](CC(N)=O)C(=O)N[C@@H]([C@@H](C)O)C(=O)N[C@@H](C)C(=O)N[C@@H]([C@@H](C)O)C(=O)N1)[C@@H](C)O)C(=O)N1CCC[C@H]1C(=O)N[C@@H](CO)C(=O)N[C@@H](CO)C(=O)N[C@H](C(=O)N[C@@H](CC(N)=O)C(=O)N[C@H](C(=O)NCC(=O)N[C@@H](CO)C(=O)N[C@@H](CCCNC(=N)N)C(=O)N[C@H](C(=O)N[C@@H](Cc1ccc(O)cc1)C(N)=O)[C@@H](C)O)C(C)C)[C@@H](C)O [NN1213]	42	96	15	25	70	–	–	–	–	–	–	–
CC[C@H](C)[C@H](NC(=O)[C@H](C)NC(=O)CNC(=O)[C@H](Cc1ccccc1)NC(=O)[C@H](CC(N)=O)NC(=O)[C@@H]1CCCN1C(=O)[C@H](CO)NC(=O)[C@H](CO)NC(=O)[C@H](Cc1c[nH]cn1)NC(=O)[C@H](CCCNC(=N)N)NC(=O)[C@H](CC(C)C)NC(=O)[C@H](Cc1ccccc1)NC(=O)[C@H](CC(N)=O)NC(=O)[C@H](C)NC(=O)[C@H](CC(C)C)NC(=O)[C@H](CCCNC(=N)N)NC(=O)[C@H](CCC(N)=O)NC(=O)[C@@H](NC(=O)[C@H](C)NC(=O)[C@@H]1CSSC[C@H](NC(=O)[C@H](CCCCN)NC(=O)CC[C@H](NC(=O)CCCCCCCCCCCCCCCCCCC(=O)O)C(=O)O)C(=O)N[C@@H](CC(N)=O)C(=O)N[C@@H]([C@@H](C)O)C(=O)N[C@@H](C)C(=O)N[C@@H]([C@@H](C)O)C(=O)N1)[C@@H](C)O)C(=O)N1CCC[C@H]1C(=O)N[C@@H](CO)C(=O)N[C@@H](CO)C(=O)N[C@H](C(=O)N[C@@H](CC(N)=O)C(=O)N[C@H](C(=O)NCC(=O)N[C@@H](Cc1c[nH]cn1)C(=O)N[C@@H](CC(N)=O)C(=O)N[C@H](C(=O)N[C@@H](Cc1ccc(O)cc1)C(N)=O)[C@@H](C)O)C(C)C)[C@@H](C)O [Peptide 17]	–	92	–	–	–	2.51	8.60	26	14.1	7.85	–	–
CC[C@H](C)[C@H](NC(=O)[C@@H]1CCCN1C(=O)CNC(=O)[C@H](Cc1ccccc1)NC(=O)[C@H](CC(N)=O)NC(=O)[C@@H]1CCCN1C(=O)[C@H](CO)NC(=O)[C@H](CO)NC(=O)[C@H](Cc1c[nH]cn1)NC(=O)[C@H](CCCNC(=N)N)NC(=O)[C@H](CC(C)C)NC(=O)[C@H](Cc1ccccc1)NC(=O)[C@H](CC(=O)O)NC(=O)[C@H](C)NC(=O)[C@H](CC(C)C)NC(=O)[C@H](CCCNC(=N)N)NC(=O)[C@H](CCC(N)=O)NC(=O)[C@@H](NC(=O)[C@H](C)NC(=O)[C@@H]1CSSC[C@H](NC(=O)[C@@H](N)CCCCNC(=O)CC[C@H](NC(=O)CC[C@H](NC(=O)CCCCCCCCCCCCCCCCCCC(=O)O)C(=O)O)C(=O)O)C(=O)N[C@@H](CC(N)=O)C(=O)N[C@@H]([C@@H](C)O)C(=O)N[C@@H](C)C(=O)N[C@@H]([C@@H](C)O)C(=O)N1)[C@@H](C)O)C(=O)N[C@@H](CC(C)C)C(=O)N[C@@H](CO)C(=O)N[C@@H](CO)C(=O)N[C@H](C(=O)N[C@@H](CC(N)=O)C(=O)N[C@H](C(=O)NCC(=O)N[C@@H](CO)C(=O)N[C@@H](CC(=O)O)C(=O)N[C@H](C(=O)N[C@@H](Cc1ccc(O)cc1)C(N)=O)[C@@H](C)O)C(C)C)[C@@H](C)O [Peptide 3] (H-K([γGlu-γGlu-C20 diacid])CNTATCATQRLADFLRHSSPNFGPILSSTNVGSDTY-NH2; disulfide 2-7)	–	–	–	–	–	3.02	8.52	–	74.1	7.13	0.3	19
CC[C@H](C)[C@H](NC(=O)[C@H](C)NC(=O)CNC(=O)[C@H](Cc1ccccc1)NC(=O)[C@H](CC(N)=O)NC(=O)[C@@H]1CCCN1C(=O)[C@H](CO)NC(=O)[C@H](CO)NC(=O)[C@H](Cc1c[nH]cn1)NC(=O)[C@H](CCCNC(=N)N)NC(=O)[C@H](CC(C)C)NC(=O)[C@H](Cc1ccccc1)NC(=O)[C@H](CC(N)=O)NC(=O)[C@H](C)NC(=O)[C@H](CC(C)C)NC(=O)[C@H](CCCNC(=N)N)NC(=O)[C@H](CCC(N)=O)NC(=O)[C@@H](NC(=O)[C@H](C)NC(=O)[C@@H]1CSSC[C@H](NC(=O)[C@H](CCCCN)NC(=O)CC[C@H](NC(=O)CCCCCCCCCCCCCCCCCCC(=O)O)C(=O)O)C(=O)N[C@@H](CC(N)=O)C(=O)N[C@@H]([C@@H](C)O)C(=O)N[C@@H](C)C(=O)N[C@@H]([C@@H](C)O)C(=O)N1)[C@@H](C)O)C(=O)N1CCC[C@H]1C(=O)N[C@@H](CO)C(=O)N[C@@H](CO)C(=O)N[C@H](C(=O)N1CCC[C@H]1C(=O)N[C@H](C(=O)NCC(=O)N[C@@H](CO)C(=O)N[C@@H](CCC(=O)O)C(=O)N[C@H](C(=O)N[C@@H](Cc1ccc(O)cc1)C(N)=O)[C@@H](C)O)C(C)C)[C@@H](C)O [Peptide 11] ({C20 diacid-γGlu}-KCNTATCATQRLANFLRHSSPNFGAIPSSTPVGSETY-NH2; disulfide 2-7)	–	74	–	–	–	2	8.70	40	12	7.92	–	–
